Data from patent US20250145594A1, “MODULATORS OF THE INTEGRATED STRESS PATHWAY” (Calico Life Sciences LLC, priority 2020, published 2025).

Tested on: ATF4 luciferase reporter in HEK293T cells
Experiment: ATF4-Luc assay (in vitro model of VWMD)
Type: cell-based, human
Conditions: Homo sapiens, HEK-293T, 7 h, HEK293T cells carrying the ATF4 luciferase reporter, 1 μg/mL tunicamycin, One Glo luminescence
In short: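 Stable HEK293T line expressing firefly luciferase behind the human ATF4 5′-UTR, treated with 1 μg/mL tunicamycin plus compound for 7 hours. Luminescence read with One Glo; EC50 determined.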

Row | Structure (SMILES) | EC50 [nM]
1 | O=C(COc1cc(F)c(Cl)c(Br)c1)N[C@H]1C[C@H]2C[C@@H]1C[C@@H]2NC(=O)CO[C@H]1C[C@@H](OC(F)(F)F)C1 [Compound 381, 2-(3-bromo-4-chloro-5-fluorophenoxy)-N-[(1R,2S,4R,5S)-5-(2-{[cis-3-(trifluoromethoxy)cyclobutyl]oxy}acetamido)bicyclo[2.2.1]heptan-2-yl]acetamide] | 10 to 50
2 | O=C(NC12CC(n3cc(C(=O)N4CC[C@H](OC(F)(F)F)C4)cn3)(C1)C2)[C@@H]1C[C@@H](O)c2cc(C(F)(F)F)ccc2O1 [Compound 378, (2S,4R)-4-hydroxy-N-(3-{4-[(3S)-3-(trifluoromethoxy)pyrrolidine-1-carbonyl]-1H-pyrazol-1-yl}bicyclo[1.1.1]pentan-1-yl)-6-(trifluoromethyl)-3,4-dihydro-2H-1-benzopyran-2-carboxamide] | < 10
3 | O=C(CO[C@H]1C[C@@H](OC(F)(F)F)C1)NC12CC(NC(=O)[C@H]3C[C@@H](O)c4cc(C(F)(F)F)ccc4O3)(C1)C2 [Compound 493, (2R,4R)-4-hydroxy-N-[3-(2-{[(1s,3S)-3-(trifluoromethoxy)cyclobutyl]oxy}acetamido)bicyclo[1.1.1]pentan-1-yl]-6-(trifluoromethyl)-3,4-dihydro-2H-1-benzopyran-2-carboxamide] | < 10
4 | O=C(CO[C@H]1C[C@@H](OC(F)(F)F)C1)N[C@@H]1C[C@@H]2C[C@H]1C[C@H]2NC(=O)[C@@H]1C[C@@H](O)c2cc(Cl)ccc2O1 [Compound 393, (2S,4R)-6-chloro-4-hydroxy-N-[(1S,2R,4S,5R)-5-(2-{[cis-3-(trifluoromethoxy)cyclobutyl]oxy}acetamido)bicyclo[2.2.1]heptan-2-yl]-3,4-dihydro-2H-1-benzopyran-2-carboxamide] | 50 to 250
5 | O=C(NC12CC(n3cc(CCCCOC(F)(F)F)nn3)(C1)C2)[C@H]1C[C@@H](O)c2cc(Cl)c(F)cc2O1 [Compound 466, (2R,4R)-6-chloro-7-fluoro-4-hydroxy-N-(3-{4-[4-(trifluoromethoxy)butyl]-1H-1,2,3-triazol-1-yl}bicyclo[1.1.1]pentan-1-yl)-3,4-dihydro-2H-1-benzopyran-2-carboxamide] | < 10
6 | O=C(NC12CC(n3cc(-c4ccc(OC(F)(F)F)cn4)cn3)(C1)C2)[C@H]1C[C@@H](O)c2cc(Cl)c(Br)cc2O1 [Compound 380, (2R,4R)-7-bromo-6-chloro-4-hydroxy-N-(3-{4-[5-(trifluoromethoxy)pyridin-2-yl]-1H-pyrazol-1-yl}bicyclo[1.1.1]pentan-1-yl)-3,4-dihydro-2H-1-benzopyran-2-carboxamide] | < 10
7 | O=C(NC12CC(c3ccnc(-n4cc(C(F)(F)F)cn4)c3)(C1)C2)[C@H]1C[C@@H](O)c2cc(Cl)ccc2O1 [Compound 560, (2R,4R)-6-chloro-4-hydroxy-N-(3-{2-[4-(trifluoromethyl)-1H-pyrazol-1-yl]pyridin-4-yl}bicyclo[1.1.1]pentan-1-yl)-3,4-dihydro-2H-1-benzopyran-2-carboxamide] | 10 to 50
8 | O=C(NC12CC(n3cc(N4CC(COC(F)(F)F)C4)cn3)(C1)C2)[C@H]1C[C@@H](O)c2cc(Cl)ccc2O1 [Compound 337, (2R,4R)-6-chloro-4-hydroxy-N-[3-(4-{3-[(trifluoromethoxy)methyl]azetidin-1-yl}-1H-pyrazol-1-yl)bicyclo[1.1.1]pentan-1-yl]-3,4-dihydro-2H-1-benzopyran-2-carboxamide] | 10 to 50
9 | O=C(NC12CC(n3cc(-c4ccc(C(F)F)cn4)cn3)(C1)C2)[C@H]1C[C@@H](O)c2cc(Cl)ccc2O1 [Compound 568, (2R,4R)-6-chloro-N-(3-{4-[5-(difluoromethyl)pyridin-2-yl]-1H-pyrazol-1-yl}bicyclo[1.1.1]pentan-1-yl)-4-hydroxy-3,4-dihydro-2H-1-benzopyran-2-carboxamide] | < 10
10 | COc1cc2cn(C34CC(NC(=O)COc5ccc(Cl)c(Cl)c5)(C3)C4)nc2cn1 [Compound 622, 2-(3,4-dichlorophenoxy)-N-[3-(5-methoxy-2H-pyrazolo[3,4-c]pyridin-2-yl)bicyclo[1.1.1]pentan-1-yl]acetamide] | 10 to 50
11 | O=C(NC12CC(c3nnc(OCCOC(F)(F)F)o3)(C1)C2)[C@H]1C[C@@H](O)c2cc(Cl)ccc2O1 [Compound 468, (2R,4R)-6-chloro-4-hydroxy-N-(3-{5-[2-(trifluoromethoxy)ethoxy]-1,3,4-oxadiazol-2-yl}bicyclo[1.1.1]pentan-1-yl)-3,4-dihydro-2H-1-benzopyran-2-carboxamide] | < 10
12 | O=C(NC12CC(n3cc([C@@H]4C[C@H]4COC(F)(F)F)nn3)(C1)C2)[C@H]1C[C@@H](O)c2cc(Cl)ccc2O1 (mixture of isomers) [Compound 542, (2R,4R)-6-chloro-4-hydroxy-N-[3-(4-{(1RS,2RS)-2-[(trifluoromethoxy)methyl]cyclopropyl}-1H-1,2,3-triazol-1-yl)bicyclo[1.1.1]pentan-1-yl]-3,4-dihydro-2H-1-benzopyran-2-carboxamide] | < 10
13 | COc1ccc2nn(C34CC(NC(=O)[C@H]5C[C@@H](O)c6cc(Cl)c(F)cc6O5)(C3)C4)cc2n1 [Compound 506, (2R,4R)-6-chloro-7-fluoro-4-hydroxy-N-[3-(5-methoxy-2H-pyrazolo[4,3-b]pyridin-2-yl)bicyclo[1.1.1]pentan-1-yl]-3,4-dihydro-2H-1-benzopyran-2-carboxamide] | < 10
14 | COc1ccc2nn(C34CC(NC(=O)[C@H]5C[C@@H](O)c6cc(Cl)ccc6O5)(C3)C4)cc2c1 [Compound 501, (2R,4R)-6-chloro-4-hydroxy-N-[3-(5-methoxy-2H-indazol-2-yl)bicyclo[1.1.1]pentan-1-yl]-3,4-dihydro-2H-1-benzopyran-2-carboxamide] | 10 to 50
15 | O=C(NC12CC(n3cc(-c4ccc(C(F)(F)F)cn4)cn3)(C1)C2)C1CNc2cc(Cl)c(F)cc2O1 (stereo not shown) [Compound 574, 6-chloro-7-fluoro-N-(3-{4-[5-(trifluoromethyl)pyridin-2-yl]-1H-pyrazol-1-yl}bicyclo[1.1.1]pentan-1-yl)-3,4-dihydro-2H-1,4-benzoxazine-2-carboxamide] | < 10
16 | O=C(NC12CC(n3cnc(C(=O)N4CCC[C@@H](OC(F)(F)F)C4)c3)(C1)C2)[C@H]1C[C@@H](O)c2cc(Cl)ccc2O1 [Compound 392, (2R,4R)-6-chloro-4-hydroxy-N-(3-{4-[(3R)-3-(trifluoromethoxy)piperidine-1-carbonyl]-1H-imidazol-1-yl}bicyclo[1.1.1]pentan-1-yl)-3,4-dihydro-2H-1-benzopyran-2-carboxamide] | 250 to 500
17 | COc1ccc2nn(C34CC(NC(=O)C5CNc6cc(C(F)(F)F)c(F)cc6O5)(C3)C4)cc2c1 (stereo not shown) [Compound 653, 7-fluoro-N-[3-(5-methoxy-2H-indazol-2-yl)bicyclo[1.1.1]pentan-1-yl]-6-(trifluoromethyl)-3,4-dihydro-2H-1,4-benzoxazine-2-carboxamide] | 50 to 250
18 | O=C(NC12CC(n3cc(-c4ccc(C(F)(F)F)cn4)cn3)(C1)C2)[C@@H]1CNc2cc(Cl)ccc2O1 [Compound 573, (2S)-6-chloro-N-(3-{4-[5-(trifluoromethyl)pyridin-2-yl]-1H-pyrazol-1-yl}bicyclo[1.1.1]pentan-1-yl)-3,4-dihydro-2H-1,4-benzoxazine-2-carboxamide] | 10 to 50
19 | O=C(N[C@H]1CC[C@H](n2cc(OCCOC(F)(F)F)cn2)CC1)[C@H]1C[C@@H](O)c2cc(Cl)c(F)cc2O1 [Compound 419, (2R,4R)-6-chloro-7-fluoro-4-hydroxy-N-[(1r,4R)-4-{4-[2-(trifluoromethoxy)ethoxy]-1H-pyrazol-1-yl}cyclohexyl]-3,4-dihydro-2H-1-benzopyran-2-carboxamide] | < 10
20 | O=C(NC12CC(n3cnc(-c4c(F)cc(Cl)cc4F)c3)(C1)C2)[C@H]1C[C@@H](O)c2cc(Cl)ccc2O1 [Compound 344, (2R,4R)-6-chloro-N-{3-[4-(4-chloro-2,6-difluorophenyl)-1H-imidazol-1-yl]bicyclo[1.1.1]pentan-1-yl}-4-hydroxy-3,4-dihydro-2H-1-benzopyran-2-carboxamide] | < 10
21 | O=C(NC12CC(n3cc([C@@H]4C[C@H]4COC(F)(F)F)cn3)(C1)C2)[C@H]1C[C@@H](O)c2cc(Cl)ccc2O1 (mixture of isomers) [Compound 372, (2R,4R)-6-chloro-4-hydroxy-N-[3-(4-{(1RS,2RS)-2-[(trifluoromethoxy)methyl]cyclopropyl}-1H-pyrazol-1-yl)bicyclo[1.1.1]pentan-1-yl]-3,4-dihydro-2H-1-benzopyran-2-carboxamide] | 10 to 50
22 | O=C(COc1ccc(Cl)c(F)c1)NC12CC(c3ccnc(OCCCOC(F)(F)F)c3)(C1)C2 [Compound 453, 2-(4-chloro-3-fluorophenoxy)-N-(3-{2-[3-(trifluoromethoxy)propoxy]pyridin-4-yl}bicyclo[1.1.1]pentan-1-yl)acetamide] | < 10
23 | O=C(NC12CC(n3cc(OCCOC(F)(F)F)cn3)(C1)C2)[C@H]1C[C@@H](O)c2cc(C(F)(F)F)ccc2O1 [Compound 424, (2R,4R)-4-hydroxy-N-(3-{4-[2-(trifluoromethoxy)ethoxy]-1H-pyrazol-1-yl}bicyclo[1.1.1]pentan-1-yl)-6-(trifluoromethyl)-3,4-dihydro-2H-1-benzopyran-2-carboxamide] | < 10
24 | COc1ccc2nn(C34CC(NC(=O)[C@H]5C[C@@H](O)c6cc(Cl)c(F)cc6O5)(C3)C4)cc2c1 [Compound 505, (2R,4R)-6-chloro-7-fluoro-4-hydroxy-N-[3-(5-methoxy-2H-indazol-2-yl)bicyclo[1.1.1]pentan-1-yl]-3,4-dihydro-2H-1-benzopyran-2-carboxamide] | < 10
25 | O=C(NC12CC(n3cc(O[C@H]4C[C@@H](COC(F)(F)F)C4)cn3)(C1)C2)[C@H]1C[C@@H](O)c2cc(Cl)ccc2O1 [Compound 589, (2R,4R)-6-chloro-4-hydroxy-N-{3-[4-({(1s,3S)-3-[(trifluoromethoxy)methyl]cyclobutyl}oxy)-1H-pyrazol-1-yl]bicyclo[1.1.1]pentan-1-yl}-3,4-dihydro-2H-1-benzopyran-2-carboxamide] | 10 to 50
